# Results taken from article PMC7914897, “Cytotoxic Potential of a-Azepano- and 3-Amino-3,4-SeCo-Triterpenoids” (International Journal of Molecular Sciences, 2021).
# Experiments:
# [1] = tested on: HOP-62 (NSC lung cancer); experiment: NCI-60 screen (SRB, 48 h); settings: Homo sapiens
# [2] = tested on: SK-MEL-2 (Melanoma); experiment: NCI-60 screen (SRB, 48 h); settings: Homo sapiens
# [3] = tested on: OVCAR-8 (Ovarian cancer); experiment: NCI-60 screen (SRB, 48 h); settings: Homo sapiens
# [4] = tested on: Renal Cancer subpanel; experiment: NCI-60 screen, subpanel; settings: Homo sapiens
# [5] = tested on: Prostate cancer subpanel; experiment: NCI-60 screen, subpanel; settings: Homo sapiens
# [6] = tested on: K-562 (Leukemia); experiment: NCI-60 screen (SRB, 48 h); settings: Homo sapiens
# [7] = tested on: M14 (Melanoma); experiment: NCI-60 screen (SRB, 48 h); settings: Homo sapiens
# [8] = tested on: UO-31 (Renal cancer); experiment: NCI-60 screen (SRB, 48 h); settings: Homo sapiens
# [9] = tested on: SN12C (Renal cancer); experiment: NCI-60 screen (SRB, 48 h); settings: Homo sapiens
# [10] = tested on: NCI/ADR-RES (Ovarian cancer); experiment: NCI-60 screen (SRB, 48 h); settings: Homo sapiens
# [11] = tested on: SNB-19 (CNS cancer); experiment: NCI-60 screen (SRB, 48 h); settings: Homo sapiens
# [12] = tested on: COLO 205 (Colon cancer); experiment: NCI-60 screen (SRB, 48 h); settings: Homo sapiens
# [13] = tested on: DU-145 (Prostate cancer); experiment: NCI-60 screen (SRB, 48 h); settings: Homo sapiens
# [14] = tested on: HCT-15 (Colon cancer); experiment: NCI-60 screen (SRB, 48 h); settings: Homo sapiens
# [15] = tested on: ACHN (Renal cancer); experiment: NCI-60 screen (SRB, 48 h); settings: Homo sapiens
# [16] = tested on: UACC-62 (Melanoma); experiment: NCI-60 screen (SRB, 48 h); settings: Homo sapiens
# [17] = tested on: EKVX (NSC lung cancer); experiment: NCI-60 screen (SRB, 48 h); settings: Homo sapiens
# [18] = tested on: NCI-H23 (NSC lung cancer); experiment: NCI-60 screen (SRB, 48 h); settings: Homo sapiens
# [19] = tested on: SF-295 (CNS cancer); experiment: NCI-60 screen (SRB, 48 h); settings: Homo sapiens
# [20] = tested on: MALME-3M (Melanoma); experiment: NCI-60 screen (SRB, 48 h); settings: Homo sapiens
# [21] = tested on: A549/ATCC (NSC lung cancer); experiment: NCI-60 screen (SRB, 48 h); settings: Homo sapiens
# [22] = tested on: HS 578T (Breast cancer); experiment: NCI-60 screen (SRB, 48 h); settings: Homo sapiens
# [23] = tested on: Ovarian Cancer subpanel; experiment: NCI-60 screen, subpanel; settings: Homo sapiens
# [24] = tested on: T-47D (Breast cancer); experiment: NCI-60 screen (SRB, 48 h); settings: Homo sapiens, T47D
# [25] = tested on: SK-MEL-28 (Melanoma); experiment: NCI-60 screen (SRB, 48 h); settings: Homo sapiens
# [26] = tested on: SW-620 (Colon cancer); experiment: NCI-60 screen (SRB, 48 h); settings: Homo sapiens
# [27] = tested on: HOP-92 (NSC lung cancer); experiment: NCI-60 screen (SRB, 48 h); settings: Homo sapiens
# [28] = tested on: MCF7 (Breast cancer); experiment: NCI-60 screen (SRB, 48 h); settings: Homo sapiens
smiles,measurement,setting,value
C=C(C)[C@@H]1CC[C@]2(C)[C@H](CC=C3[C@@H]4[C@@H](C)[C@H](C)CC[C@]4(CO)CC[C@]32C)[C@@]1(C)CCCN [Compound 19],GI50,[1]; HOP-62,1080 nM
same,IC (TGI),"[1]; HOP-62, 48 h, read-out: TGI",2360 nM
same,CC50,"[1]; HOP-62, read-out: LC50",> 50000 nM
same,GI50,[2]; SK-MEL-2,1730 nM
same,IC (TGI),"[2]; SK-MEL-2, 48 h, read-out: TGI",5040 nM
same,CC50,"[2]; SK-MEL-2, read-out: LC50",18500 nM
same,GI50,[3]; OVCAR-8,1160 nM
same,IC (TGI),"[3]; OVCAR-8, 48 h, read-out: TGI",2800 nM
same,CC50,"[3]; OVCAR-8, read-out: LC50",> 50000 nM
same,IC (TGI),"[4]; 48 h, read-out: TGI MG_MID",4630 nM
same,GI50,[4]; read-out: GI50 MG_MID,1560 nM
same,CC50,[4]; read-out: LC50 MG_MID,13300 nM
same,IC (TGI),"[5]; 48 h, read-out: TGI MG_MID",5250 nM
same,GI50,[5]; read-out: GI50 MG_MID,1430 nM
same,CC50,[5]; read-out: LC50 MG_MID,18600 nM
same,GI50,[6]; K562,1220 nM
same,IC (TGI),"[6]; K562, 48 h, read-out: TGI",3630 nM
same,CC50,"[6]; K562, read-out: LC50",> 50000 nM
same,GI50,[7]; M14,850 nM
same,IC (TGI),"[7]; M14, 48 h, read-out: TGI",1760 nM
same,CC50,"[7]; M14, read-out: LC50",3640 nM
same,GI50,[8]; UO-31,820 nM
same,IC (TGI),"[8]; UO-31, 48 h, read-out: TGI",2240 nM
same,CC50,"[8]; UO-31, read-out: LC50",9640 nM
same,GI50,[9],840 nM
same,IC (TGI),"[9]; 48 h, read-out: TGI",1670 nM
same,CC50,[9]; read-out: LC50,3340 nM
same,GI50,[10],990 nM
same,IC (TGI),"[10]; 48 h, read-out: TGI",2170 nM
same,CC50,[10]; read-out: LC50,4770 nM
same,GI50,[11]; SNB-19,2140 nM
same,IC (TGI),"[11]; SNB-19, 48 h, read-out: TGI",8110 nM
same,CC50,"[11]; SNB-19, read-out: LC50",25000 nM
same,GI50,[12]; COLO 205,900 nM
same,IC (TGI),"[12]; COLO 205, 48 h, read-out: TGI",1940 nM
same,CC50,"[12]; COLO 205, read-out: LC50",4170 nM
same,GI50,[13]; DU-145,1210 nM
same,IC (TGI),"[13]; DU-145, 48 h, read-out: TGI",3010 nM
same,CC50,"[13]; DU-145, read-out: LC50",11300 nM
same,GI50,[14]; HCT-15,840 nM
same,IC (TGI),"[14]; HCT-15, 48 h, read-out: TGI",1760 nM
same,CC50,"[14]; HCT-15, read-out: LC50",3690 nM
same,GI50,[15],1420 nM
same,IC (TGI),"[15]; 48 h, read-out: TGI",3400 nM
same,CC50,[15]; read-out: LC50,17000 nM
same,GI50,[16]; UACC-62,5820 nM
same,IC (TGI),"[16]; UACC-62, 48 h, read-out: TGI",12600 nM
same,CC50,"[16]; UACC-62, read-out: LC50",27300 nM
same,GI50,[17],1080 nM
same,IC (TGI),"[17]; 48 h, read-out: TGI",2940 nM
same,CC50,[17]; read-out: LC50,26500 nM
same,GI50,[18]; NCI-H23,1340 nM
same,IC (TGI),"[18]; NCI-H23, 48 h, read-out: TGI",4000 nM
same,CC50,"[18]; NCI-H23, read-out: LC50",17500 nM
same,GI50,[19]; SF-295,850 nM
same,IC (TGI),"[19]; SF-295, 48 h, read-out: TGI",1580 nM
same,CC50,"[19]; SF-295, read-out: LC50",2940 nM
same,GI50,[20],730 nM
same,IC (TGI),"[20]; 48 h, read-out: TGI",1420 nM
same,CC50,[20]; read-out: LC50,2740 nM
same,GI50,[21]; A549,1590 nM
same,IC (TGI),"[21]; A549, 48 h, read-out: TGI",5110 nM
same,CC50,"[21]; A549, read-out: LC50",> 50000 nM
same,GI50,[22],990 nM
same,IC (TGI),"[22]; 48 h, read-out: TGI",2230 nM
same,CC50,[22]; read-out: LC50,5000 nM
same,IC (TGI),"[23]; 48 h, read-out: TGI MG_MID",4200 nM
same,GI50,[23]; read-out: GI50 MG_MID,1570 nM
same,CC50,[23]; read-out: LC50 MG_MID,19700 nM
same,GI50,[24],1510 nM
same,IC (TGI),"[24]; 48 h, read-out: TGI",5150 nM
same,CC50,[24]; read-out: LC50,> 50000 nM
same,GI50,[25]; SK-MEL-28,950 nM
same,IC (TGI),"[25]; SK-MEL-28, 48 h, read-out: TGI",1670 nM
same,CC50,"[25]; SK-MEL-28, read-out: LC50",2940 nM
same,GI50,[26]; SW-620,1010 nM
same,IC (TGI),"[26]; SW-620, 48 h, read-out: TGI",2110 nM
same,CC50,"[26]; SW-620, read-out: LC50",4390 nM
same,GI50,[27]; HOP-92,1040 nM
same,IC (TGI),"[27]; HOP-92, 48 h, read-out: TGI",3460 nM
same,CC50,"[27]; HOP-92, read-out: LC50",23100 nM
same,GI50,[28]; MCF7,830 nM
same,IC (TGI),"[28]; MCF7, 48 h, read-out: TGI",1730 nM
